Test results reported in US20230105108A1, “COMPOUNDS FOR THE TREATMENT OF BACTERIAL INFECTIONS AND POTENTIATION OF ANTIBIOTICS” (GEORGIA STATE UNIVERSITY RESEARCH FOUNDATION, INC., priority 2019, published 2023).
Structures can show the parent of a compound that is named as a salt. Where two headings read alike, the source gives them in different places.

How the values were obtained:
E. coli [1] = test: Influence of exogenous LPS and Mg2+ on bacterial sensitizer; format: cell-based; conditions: for effect of extra LPS in culture media on sensitization: LPS 0 to 40 μM; for effect of Mg2+ on sensitization activity: exogenous Mg2+; for Sensitization fold: rifampicin
Description: The MICs of bacterial sensitizer and antibiotic combination in the presence of LPS (ranging from 0 to 40 μM) or Mg^2+ (ranging from 0 to 20 mM) was determined as described above (Bacteria culture and MICs determination section).
Various experiments were then conducted to examine the molecular target(s). […] Briefly, E. coli was treated with 5 μg/ml MD-124 (about 10 μM) with varying concentrations of LPS (from 0 to 40 μM) for 20 h. Then OD600 was measured.
Briefly, E. coli was treated with […] MD-124 (about 10 μM) with varying concentrations of Mg^2+ (from 0 to 15 mM) for 20 h. Then OD600 was measured.

M. smegmatis = test: MIC on mycobacteria; format: cell-based, Mycobacterium smegmatis; conditions: Mycolicibacterium smegmatis, read-out: MIC on mycobacteria
HEK293 cells = test: Cytotoxicity on mammalian cells (CCK-8), HEK293; format: cell-based; conditions: for CC50: HEK293 cell line, 24 h; for IC50: Homo sapiens
Outline: (§1)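 Cells seeded a day ahead to ~80% confluency, exposed to varied compound concentrations for 24 h at 37° C, 5% CO2. CCK-8 added for a further 2 h and OD 450 nm read; viability expressed as percent of untreated control.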

E. coli [2] = test: Lysozyme assay (outer membrane disruption); format: cell-based; conditions: for bacterial lysis by lysozyme in the presence of sensitizer: 50 μg/ml lysozyme, 10 min; for bacterial lysis by sensitizer itself: absence of lysozyme
Description: Lysozyme assay to evaluate the disruption of Gram-negative bacteria out membrane by bacterial sensitizers. Lysozyme assay was performed based on literature reported method. E. coli was cultured in Mueller Hinton II cation-adjusted broth for overnight, centrifuged at 3000 g for 10 min, washed with HEPES buffer (pH=7.2) and then centrifuged again to obtain bacteria pallet. The pallet was then gently resuspended in HEPES buffer with 5 mM NaCN to obtain an E. coli suspension with OD600 between 0.8˜1.0. On a 96-well plate, each well was supplied with 100 μl lysozyme solution (100 μg/ml) containing 50 or 100 μg/ml bacterial sensitizers in HEPES buffer. To each well was added 100 μl E. coli suspension. The final concentration of lysozyme was 50 μg/ml. The plate was incubated at room temperature for 10 min and the OD600 was recorded. E. coli was also incubated with bacterial sensitizers in the absence of lysozyme to test if bacterial sensitizers would directly induce bacterial lysis. E. coli that was incubated with lysozyme alone or E. coli without any treatment were also used as negative control.

[3] = system: E. coli (lipid A part of LPS); test: Dansyl-PMBN displacement assay; format: binding; conditions: E. coli with 10 μM Dansyl-PMBN; sensitizer 0 to 200 μM
Description: Panel (C) depicts a Dansyl-PMBN displacement assay. […] The fluorescent intensity of 10 μM Dansyl-PMBN in HEPES buffer was recorded as baseline F0. Fluorescent intensity/%=(F1−Fx)/(F1−F0). […] All results are triplicates.
Dansyl-PMBN displacement assay. Dansyl-PMBN was synthesized according to literature procedure. Dansyl-PMBN was dissolved in H2O to make 500 μM stock. Bacterial sensitizers were dissolved in ethanol to make 10 mM stock solutions. […] The E. coli stock was centrifuged at 3000 g for 10 min, washed with HEPES buffer (pH=7.2) and then centrifuged again to obtain bacteria pallet. The pallet was then gently resuspended in HEPES buffer to obtain a E. coli suspension with OD600 about 0.3. The experiment was performed on 96-well plates. Each well was supplied with 100 μl coli suspension with 10 μM Dansyl-PMBN, then to each well, different concentrations of bacterial sensitizers were added to achieve a final concentration ranging from 0 to 200 μM.
Mg^2+ can bridge between adjacent lipid A and enhance the membrane integrity. […] This phenomenon was also observed on MD-100. The culture medium for E. coli is Muller Hinton Broth (Cation adjusted), which already has at least 0.5 mM Mg^2+, so the “zero concentration point of Mg^2+” in FIG. 4 represents the amount of exogenous Mg^2+, not the total Mg^2+ in the culture medium. […] A fluorescent conjugate of a polymyxin-B derivative (Dansyl-PMBN, Scheme 3), which would show increased fluorescent intensity after binding to the lipid A part of LPS, was used to further probe this issue. In the presence of another component that can also binding to lipid A, Dansyl-PMBN would be replaced, leading to decreased fluorescent intensity.

NIH3T3 cells = test: Cytotoxicity on mammalian cells (CCK-8), NIH3T3; format: cell-based; conditions: 3T3 cell line; 24 h
Outline: as §1

E. coli strain NR698 = test: Sensitization of outer membrane leaky E. coli strain NR698; format: cell-based
Description: Ery is short for erythromycin. […] E. coli NR698 was cultured with the antibiotic at various concentrations in the presence or absence of bacterial sensitizer for 24 h at 37° C. Then bacterial growth density was determined by measuring OD600. […] Then the growth density/% was calculated based on OD600.
Bacteria culture and MICs determination: Gram-negative bacteria were cultured in Mueller Hinton II cation-adjusted broth. Gram-positive bacteria were cultured in LB broth. Mycobacterium smegmatis was cultured in Middlebrook 7H9 Broth. MICs of antibiotics itself were determined by performing two-fold serial dilutions of antibiotics. MICs of antibiotics in the presence of bacterial sensitizers were determined by performing two-fold serial dilutions of antibiotics with or without a constant concentration of bacterial sensitizers. The MICs tests were performed on 96-well plates with a final volume of 200 μl Mueller Hinton II cation-adjusted broth in each well. Each well was inoculated with 5×10^5 CFU/ml bacteria and was incubated for 24 h at 37° C. with continuous shaking of 200 rpm. The bacterial density was then determined by OD600. Bacterial growth %=OD600 of antibiotic treatment group/OD600 of antibiotic non-treatment group. MICs was determined as the concentrations that inhibit more than 90% of bacteria growth.

Cc1cc(COc2ccc(C(=N)N)cc2)cc(COc2ccc(C(=N)N)cc2)c1 [MD-100, 4,4′-(((5-methyl-1,3-phenylene)bis(methylene))bis(oxy))dibenzimidamide dihydrochloride]
effect of extra LPS in culture media on sensitization (E. coli [1]): abolished the sensitization effect
effect of Mg2+ on sensitization activity (E. coli [1]): decreased the sensitization ability
MIC (M. smegmatis): 12 µM
CC50 (HEK293 cells): 100 µM
IC50 (HEK293 cells; HEK293): 100 µM
bacterial lysis by lysozyme in the presence of sensitizer (E. coli [2]; 50 μg/ml sensitizer): quick bacterial lysis
bacterial lysis by sensitizer itself (E. coli [2]): did not lead to bacterial lysis
displacement of Dansyl-PMBN (fluorescent intensity) [3]: able to displace Dansyl-PMBN although not as much as MD-124
CC50 (NIH3T3 cells): 100 µM
sensitization of E. coli strain NR698 (E. coli strain NR698; erythromycin, MD-100, 24 h): failed to sensitize

N=C(N)c1ccc(COc2cc(OCc3ccc(C(=N)N)cc3)cc(C(F)(F)F)c2)cc1 [MD-124, 4,4′-(((5-(trifluoromethyl)-1,3-phenylene)bis(oxy))bis(methylene)) dibenzimidamide dihydrochloride]
MIC of rifampicin with 5 μg/ml MD-124 (E. coli [1]; LPS 0 μM, rifampicin only 10 μg/ml): 0.02
effect of extra LPS in culture media on sensitization (E. coli [1]): abolished the sensitization effect
MIC of rifampicin with 5 μg/ml MD-124 (E. coli [1]; LPS 5 μM): 2.5
MIC of rifampicin with 5 μg/ml MD-124 (E. coli [1]; LPS 10 μM): 2.5
MIC of rifampicin with 5 μg/ml MD-124 (E. coli [1]; LPS 20 μM): 5
MIC of rifampicin with 5 μg/ml MD-124 (E. coli [1]; LPS 40 μM): 5
MIC of rifampicin with 5 μg/ml MD-124 (E. coli [1]; LPS […]): 1.25
MIC of rifampicin with 5 μg/ml MD-124 (E. coli [1]; Mg2+ 0 mM, rifampicin only 10 μg/ml): 0.02
MIC of rifampicin with 5 μg/ml MD-124 (E. coli [1]; Mg2+ 1.25 mM): 0.02
MIC of rifampicin with 5 μg/ml MD-124 (E. coli [1]; Mg2+ 5 mM): 1.25
MIC of rifampicin with 5 μg/ml MD-124 (E. coli [1]; Mg2+ 10 mM): 2.5
MIC of rifampicin with 5 μg/ml MD-124 (E. coli [1]; Mg2+ 15 mM): 5
MIC of rifampicin with 5 μg/ml MD-124 (E. coli [1]; Mg2+ […]): 0.04
effect of Mg2+ on sensitization activity (E. coli [1]): dampened the bacterial sensitization activity
Sensitization fold (E. coli [1]; 5 μg/ml MD-124, LPS 0 μM): 512 fold
Sensitization fold (E. coli [1]; 5 μg/ml MD-124, LPS 5 μM): 4 fold
Sensitization fold (E. coli [1]; 5 μg/ml MD-124, LPS 10 μM): 4 fold
Sensitization fold (E. coli [1]; 5 μg/ml MD-124, LPS 20 μM): 2 fold
Sensitization fold (E. coli [1]; 5 μg/ml MD-124, LPS 40 μM): 2 fold
Sensitization fold (E. coli [1]; 5 μg/ml MD-124, LPS […]): 8 fold
Sensitization fold (E. coli [1]; 5 μg/ml MD-124, Mg2+ 0 mM): 512 fold
Sensitization fold (E. coli [1]; 5 μg/ml MD-124, Mg2+ 5 mM): 8 fold
Sensitization fold (E. coli [1]; 5 μg/ml MD-124, Mg2+ 10 mM): 4 fold
Sensitization fold (E. coli [1]; 5 μg/ml MD-124, Mg2+ 15 mM): 2 fold
Sensitization fold (E. coli [1]; 5 μg/ml MD-124, Mg2+ […]): 256 fold
MIC (M. smegmatis; M. smegmatis): 12 µM
CC50 (HEK293 cells): 100 µM
IC50 (HEK293 cells; HEK293 cells (Table 6), read-out: IC50): 100 µM
bacterial lysis by lysozyme in the presence of sensitizer (E. coli [2]; 25 μg/ml sensitizer): quick bacterial lysis
bacterial lysis by sensitizer itself (E. coli [2]): did not lead to bacterial lysis
displacement of Dansyl-PMBN (fluorescent intensity) [3]: steadily decreased in a concentration dependent fashion
CC50 (NIH3T3 cells): 100 µM
Sensitization fold (E. coli strain NR698; E. coli NR698 towards clarithromycin, 5 μg/ml sensitizer): 4 fold
